Here are results for 1 molecule from patent US20020132220A1, “Use of selectin antagonists in organ preservation solutions” (priority 2000, published 2002).

The subject of experiment [1] is rat kidney. Kind of experiment: Syngeneic rat kidney transplantation (Lewis to Lewis) after flushing the kidney with perfusate; ischemia/reperfusion injury. The class given is in vivo. As to conditions: for Blood Urea Nitrogen / Serum Creatinine / GFR: syngeneic transplantation; for GFR: 4° C., 30 min on ice. On the procedure: (§1) To determine the effects of bimosiamose on the ischemia/reperfusion component of transplant injury, the following experiment was performed. To test bimosiamose solutions, a rat kidney is flushed with a solution containing bimosiamose (compound 1, 1,6-bis-(3-(3-carbomethylphenyl)-4-(2-α-D-mannopyranosyloxy)phenyl)hexane disodium salt, prepared according to the procedure described in U.S. Pat. No. 5,919,768) upon harvest from a donor and prior to placement into a recipient, to determine whether or not there is any protective effect. Rats for both examples were supplied by Harlan. A syngeneic transplantation model (Lewis rat to Lewis rat) was utilized. In this model, the immune system mediated rejection component is not relevant since the donor and recipient are of similar genetic background (syngeneic). In this experiment, test bimosiamose solutions were made up in a concentration of 100 mg/ml in phosphate-buffered saline solution, at a pH of 7.4. Test amounts of bimoisamose solution (as indicated in column 1 of Table 1) were added to Collins solution, to form the test perfusate solution. The Collins solution was purchased from Baxter, and contained 740 mg dibasic potassium phosphate, 205 mg monobasic potassium phosphate, 112 mg potassium chloride and 84 mg sodium bicarbonate per 100 mL solution, at pH 7.4. The test perfusate solution was cooled to a temperature of 4° C., and then 2 ml was utilized to perfuse the organ, which was afterwards maintained on ice for thirty minutes. Perfusion pressure was at or below physiologic pressure during the perfusion.
(§2) Following the 30 minute cold-temperature perfusion, transplantation was performed by transplanting a graft organ using end-to-end anastomosis of the renal artery, vein and ureter, with a simultaneous contralateral nephrectomy, wherein when the graft fails, the recipient does shortly thereafter.
This injury is the result of 30 minutes of cold ischemia with an additional 30 minutes of warm ischemia during the surgical re-anastomosis. N in the first column of Table 1 indicates sample size, i.e.—when N=6, six animals were tested. […] These observations are supported by reductions in serum creatinine and blood urea nitrogen (see Table 1). Therefore, Table 1 illustrates a statistically significant improvements associated with bimosiamose treatment.

Experiment [2] relates to rat kidney. Kind of experiment: Allogeneic rat kidney transplantation (Lewis to ACI) after flushing the kidney with perfusate; graft/recipient survival. The format is in vivo, Lewis rats to ACI rats. As to conditions: for Survival: allogeneic transplantation, no immunosuppression. On the procedure:
as §1, §2
The procedure described in Example 1 was also utilized to determine what effect bimosiamose solutions would have when transplantation between donor and recipient were not matched for histocompatibility (test rats are allogenic). […]

Setting [3] is: kidney perfused with 0.5 mg/ml in Collins solution.
[4] abbreviates: kidney perfused with 1.0 mg/ml in Collins solution.

Structures can show the parent of a compound that is named as a salt.

Consider `O=C(O)Cc1cccc(-c2cc(CCCCCCc3ccc(OC4OC(CO)C(O)C(O)C4O)c(-c4cccc(CC(=O)O)c4)c3)ccc2OC2OC(CO)C(O)C(O)C2O)c1` [Cmpd. 1, 1,6-bis-(3-(3-carbomethylphenyl)-4-(2-α-D-mannopyranosyloxy)phenyl)hexane disodium salt], for which the “Renal function (in words)” value in experiment [1] (flushing the organ with a solution containing 1 mg/2 ml or 2 mg/2 ml) is on record as “preservation of renal function”. The “Blood Urea Nitrogen” value in experiment [1] (setting [3]) was determined as 49.8 ± 24.2 mg/dL; in experiment [1] (setting [4]) it was 32.0 ± 4.6 mg/dL. In addition, the entries for the “Serum Creatinine” value in experiment [1] (setting [3]) and in experiment [1] (setting [4]) were 0.62 ± 0.23 mg/dL and 0.48 ± 0.08 mg/dL, respectively. In addition, the results for the GFR in experiment [1] (setting [3]) and in experiment [1] (setting [4]) were 0.70 ± 0.37 mL/min and 0.91 ± 0.08 mL/min, respectively. The Survival in experiment [2] (kidney flushed with 0.5 mg/ml) is given as 18.50 ± 6.45 days; in experiment [2] (kidney flushed with 1.0 mg/ml) it was 30.25 ± 13.25 days. Besides, in experiment [2] (renal allografts flushed with solution, without standard immunosuppressive agents), the “Graft function/survival (in words)” value was “dose-related preservation of graft function/survival”.
